Twelve compounds from PubChem BioAssay (NCI) can be followed below.

Molecules are shown by their SMILES.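 Cultured in 96-well plates, cells were exposed to test compound for 48 hours across five concentrations. TGI marks complete inhibition of growth.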

Some test systems named below: RXF 393 renal; HCT-15 colon; SNB-19 CNS; LOX IMVI melanoma; HCC-2998 colon; SR leukemia; IGROV1 ovarian; UACC-62 melanoma; EKVX NSCLC; SK-MEL-28 melanoma; NCI-H460 lung; SNB-75 CNS; UACC-257 melanoma; NCI-H23 lung; CCRF-CEM leukemia; OVCAR-4 ovarian; NCI-H226 lung; HL-60(TB) leukemia; TK-10 renal; MDA-MB-435.
Common to all, as to experiment: NCI anticancer screen, dose series, 48 h

With `NS(=O)(=O)c1ccc(Nc2c3ccccc3nc3c(C(=O)N4CCN(CCO)CC4)cccc23)cc1`, the TGI in the assay with RXF 393 renal, with HCT-15 colon, in the assay with SNB-19 CNS, in the assay on LOX IMVI melanoma, with HCC-2998 colon and in the assay on SR leukemia was above 100 µM throughout. For the same compound, the TGI in the assay with IGROV1 ovarian, in the assay with UACC-62 melanoma, with EKVX NSCLC, in the assay on SK-MEL-28 melanoma, in the assay with NCI-H460 lung and in the assay on SNB-75 CNS was above 100 µM each time. In addition, the TGI is above 100 µM in the assay with UACC-257 melanoma; above 100 µM with NCI-H23 lung; above 100 µM in the assay with CCRF-CEM leukemia; above 100 µM in the assay on OVCAR-4 ovarian; above 100 µM in the assay on NCI-H226 lung; 65.5 µM in the assay on HL-60(TB) leukemia. In the assay with TK-10 renal, this compound gave a TGI above 100 µM.

Turning to `O=c1[nH]c(=O)n(C2CC(O)C(CO)O2)cc1C(F)(C(F)(F)F)C(F)(F)F` (centres undefined), the TGI in the assay with RXF 393 renal, with HCT-15 colon, with SNB-19 CNS, in the assay with LOX IMVI melanoma, in the assay on SR leukemia and in the assay with IGROV1 ovarian was above 100 µM in each case. In addition, the TGI with UACC-62 melanoma, in the assay with EKVX NSCLC, with SK-MEL-28 melanoma, with NCI-H460 lung, in the assay on SNB-75 CNS and in the assay with UACC-257 melanoma was above 100 µM in each case. The TGI in the assay with NCI-H23 lung, in the assay with CCRF-CEM leukemia, with OVCAR-4 ovarian, with NCI-H226 lung, in the assay on HL-60(TB) leukemia and in the assay with TK-10 renal was above 100 µM throughout.

For `CNC(=O)C1(C#N)C(c2ccccc2)C(C#N)(C(=O)NC)C1c1ccccc1` (centres undefined), the TGI in the assay with MDA-MB-435, with HCT-15 colon, with SNB-19 CNS, with LOX IMVI melanoma, in the assay with HCC-2998 colon and in the assay with SR leukemia was above 100 µM each time. The TGI with IGROV1 ovarian, in the assay on EKVX NSCLC, in the assay on SK-MEL-28 melanoma, in the assay with NCI-H460 lung, in the assay on SNB-75 CNS and in the assay on NCI-H23 lung was above 100 µM in each case. Further, the TGI with CCRF-CEM leukemia, with OVCAR-4 ovarian, with NCI-H226 lung and with TK-10 renal was above 100 µM in each case.

Turning to `COc1ccc(C2ON(c3ccccc3)CC=C2C)cc1` (centres undefined), the TGI in the assay with RXF 393 renal, with HCT-15 colon, in the assay on SNB-19 CNS, in the assay with LOX IMVI melanoma, in the assay with HCC-2998 colon and with SR leukemia was above 100 µM throughout. Moreover, the TGI with IGROV1 ovarian, with UACC-62 melanoma, in the assay on EKVX NSCLC, in the assay with SK-MEL-28 melanoma, with NCI-H460 lung and with SNB-75 CNS was above 100 µM in each case. The TGI with UACC-257 melanoma, with NCI-H23 lung, in the assay with CCRF-CEM leukemia, with OVCAR-4 ovarian, in the assay on NCI-H226 lung and with HL-60(TB) leukemia was above 100 µM in each case. In the assay on TK-10 renal, this compound yielded a TGI above 100 µM.

As for `COc1cccc(/C=C/C(=O)c2sc(C(N)=S)nc2C)c1O`, the TGI is above 100 µM in the assay on RXF 393 renal; above 76.5 µM with HCT-15 colon; above 100 µM in the assay on SNB-19 CNS; 56.7 µM with LOX IMVI melanoma; above 100 µM with HCC-2998 colon; 32.5 µM in the assay with SR leukemia. Also, the TGI in the assay with IGROV1 ovarian, in the assay with UACC-62 melanoma, with EKVX NSCLC, in the assay with SK-MEL-28 melanoma, in the assay on NCI-H460 lung and with SNB-75 CNS was above 100 µM in each case. Further, the TGI is above 100 µM with UACC-257 melanoma; above 100 µM with NCI-H23 lung; 64.2 µM in the assay on CCRF-CEM leukemia; above 100 µM in the assay with OVCAR-4 ovarian; above 100 µM with NCI-H226 lung; above 100 µM in the assay with HL-60(TB) leukemia. This compound also registered a TGI with TK-10 renal above 100 µM.

`COc1cc2oc(-c3ccccc3)cc(=O)c2c(O)c1C`: the TGI in the assay on HCT-15 colon, with LOX IMVI melanoma, in the assay on HCC-2998 colon, in the assay on SR leukemia, with IGROV1 ovarian and in the assay on UACC-62 melanoma was above 100 µM each time. Moreover, the TGI in the assay with EKVX NSCLC, in the assay with SK-MEL-28 melanoma, in the assay with NCI-H460 lung, in the assay on SNB-75 CNS, in the assay with UACC-257 melanoma and in the assay with NCI-H23 lung was above 100 µM in each case. Further, the TGI with CCRF-CEM leukemia, in the assay on OVCAR-4 ovarian, in the assay on NCI-H226 lung, in the assay with HL-60(TB) leukemia and in the assay with TK-10 renal was above 100 µM throughout.

Take `O=C1C2CCCCC2C(=O)N1n1c(-c2ccccc2)n[nH]c1=O` (centres undefined): the TGI in the assay with MDA-MB-435, in the assay with RXF 393 renal, in the assay with HCT-15 colon, in the assay with SNB-19 CNS, in the assay with LOX IMVI melanoma and in the assay with HCC-2998 colon was above 100 µM in each case. Moreover, the TGI with SR leukemia, in the assay on IGROV1 ovarian, with UACC-62 melanoma, with EKVX NSCLC, with NCI-H460 lung and in the assay on SNB-75 CNS was above 100 µM throughout. Besides, the TGI with UACC-257 melanoma, in the assay on NCI-H23 lung, in the assay with CCRF-CEM leukemia, in the assay on OVCAR-4 ovarian, in the assay on NCI-H226 lung and in the assay on TK-10 renal was above 100 µM each time.

As for `COc1ccc2nc3c([N+](=O)[O-])ccc4c3c(c2c1)NCCN4CCN(C)C`, the TGI in the assay on MDA-MB-435 was found to be 3.49 µM; in the assay with RXF 393 renal it was 2.38 µM; in the assay with HCT-15 colon, 1.94 µM; in the assay with SNB-19 CNS, 2.27 µM; with LOX IMVI melanoma it was 1.45 µM; in the assay with SR leukemia, 7.24 µM. The TGI in the assay with IGROV1 ovarian came out at 3.15 µM; in the assay with UACC-62 melanoma, 1.96 µM; in the assay on EKVX NSCLC, 2.78 µM; with SK-MEL-28 melanoma, 3.08 µM; in the assay on NCI-H460 lung, 1.46 µM; in the assay on SNB-75 CNS, 1.57 µM. Also, the TGI with UACC-257 melanoma stood at 4.58 µM; in the assay with NCI-H23 lung, 2.86 µM; in the assay on CCRF-CEM leukemia, 4 µM; with OVCAR-4 ovarian, 0.697 µM; in the assay on NCI-H226 lung it was 7.13 µM; in the assay on TK-10 renal, 4.75 µM.

Consider `COc1ccc(N2C(=O)C3c4[nH]c5ccccc5c4C4CC(C)(C)CC(C)(C)C4C3C2=O)cc1` (centres undefined), for which the TGI is 33.1 µM in the assay with RXF 393 renal; above 100 µM with HCT-15 colon; 52.7 µM in the assay with SNB-19 CNS; above 100 µM in the assay on HCC-2998 colon; 25.7 µM in the assay on SR leukemia; 65.5 µM in the assay on IGROV1 ovarian. Moreover, the TGI is 27.6 µM in the assay with UACC-62 melanoma; 38.2 µM with EKVX NSCLC; 27.7 µM in the assay on SK-MEL-28 melanoma; 34.5 µM in the assay with SNB-75 CNS; 46.1 µM in the assay on UACC-257 melanoma; 33.9 µM in the assay on NCI-H23 lung. Also, the TGI with CCRF-CEM leukemia was above 100 µM; with OVCAR-4 ovarian, 26.2 µM; in the assay on NCI-H226 lung, 29.3 µM; with HL-60(TB) leukemia, above 100 µM.

`COC(=O)c1cc(=O)n(-c2ccc3nn(C)nc3c2)cc1C(=O)OC`: the TGI in the assay with MDA-MB-435, with RXF 393 renal, with HCT-15 colon, in the assay with SNB-19 CNS, in the assay on HCC-2998 colon and in the assay with SR leukemia was above 100 µM each time. Also, the TGI in the assay on IGROV1 ovarian, with UACC-62 melanoma, in the assay with EKVX NSCLC, with SK-MEL-28 melanoma, with NCI-H460 lung and in the assay on SNB-75 CNS was above 100 µM in each case. Further, the TGI in the assay on UACC-257 melanoma, in the assay with NCI-H23 lung, with CCRF-CEM leukemia, with OVCAR-4 ovarian, with NCI-H226 lung and in the assay on TK-10 renal was above 100 µM throughout.

For the compound `CN/C=C(\C(=O)c1ccc(OC)c(OC)c1)c1ccc(OC)cc1`, the TGI was 33.2 µM in the assay with RXF 393 renal; 28.2 µM with HCT-15 colon; above 100 µM in the assay with SNB-19 CNS; 29.8 µM with LOX IMVI melanoma; 60.7 µM with SR leukemia; above 100 µM in the assay with IGROV1 ovarian. The TGI in the assay with UACC-62 melanoma is 49.6 µM; in the assay with EKVX NSCLC it was above 100 µM; in the assay on SK-MEL-28 melanoma, 39.7 µM; in the assay with NCI-H460 lung, 63.2 µM; in the assay on SNB-75 CNS, above 100 µM; in the assay with UACC-257 melanoma it was 39.5 µM. Besides, the TGI was above 100 µM in the assay with NCI-H23 lung; 23.8 µM in the assay on CCRF-CEM leukemia; 80.1 µM in the assay on OVCAR-4 ovarian; 41.5 µM with NCI-H226 lung; 32.3 µM in the assay with HL-60(TB) leukemia; 37.9 µM with TK-10 renal.

Consider `CC(c1ccc2c(c1)CCC1C2CC2OC23CC=CC(=O)[C@]13C)C1C[C@]2(C)O[C@]2(C)[C@H](O)O1` (some centres undefined), for which the TGI in the assay with RXF 393 renal was 50.5 µM; in the assay with HCT-15 colon, above 100 µM; in the assay on SNB-19 CNS it was above 100 µM; in the assay with LOX IMVI melanoma, above 100 µM; in the assay on HCC-2998 colon, above 100 µM; in the assay with SR leukemia it was 53.6 µM. The TGI in the assay on IGROV1 ovarian, in the assay with UACC-62 melanoma, in the assay with EKVX NSCLC, with SK-MEL-28 melanoma, in the assay on NCI-H460 lung and in the assay on SNB-75 CNS was above 100 µM in each case. Further, the TGI in the assay on UACC-257 melanoma was 56.8 µM; in the assay on NCI-H23 lung it was 25.2 µM; in the assay with CCRF-CEM leukemia, above 100 µM; in the assay with NCI-H226 lung it was 72 µM; in the assay on HL-60(TB) leukemia it was 71.9 µM; in the assay on TK-10 renal, above 100 µM.
